The source made the active and inactive calls. No cut-off for these calls is given here.
Columns and labels:
[1] = Selectivity index, ratio of IC50 for cytotoxicity against human HMEC-1 cells to IC50 for cytotoxicity against human HepG2 cells; assay type: toxicity, cell-based; settings: HMEC-1 cells and HepG2 cells, read-out: Ratio IC50
[2] = Selectivity index, ratio of IC50 for cytotoxicity against human HMEC-1 cells to IC50 for cytotoxicity against human A549 cells; assay type: toxicity, cell-based; settings: HMEC-1 cells and A549 cells, read-out: Ratio IC50
K562 [3] = experiment: Antiproliferative activity against human K562 cells assessed as reduction in cell viability at IC50 measured after 72 hrs by trypan blue dye based assay relative to control; assay type: functional
K562 [4] = experiment: Induction of apoptosis in human K562 cells assessed as viable cells at IC50 incubated for 72 hrs by Annexin V-FITC/PI staining based flow cytometric analysis (reference value: 89 %); assay type: functional
K562 [5] = experiment: Induction of apoptosis in human K562 cells assessed as early apoptotic cells at IC50 incubated for 72 hrs by Annexin V-FITC/PI staining based flow cytometric analysis (reference value: 1.3 %); assay type: functional
HCT-116 [6] = experiment: Induction of apoptosis in human HCT-116 cells assessed as viable cells at IC50 incubated for 72 hrs by Annexin V-FITC/PI staining based flow cytometric analysis (reference value: 90.5 %); assay type: functional
HMEC-1 = experiment: Induction of apoptosis in human HMEC-1 cells assessed as viable cells at IC50 incubated for 72 hrs by Annexin V-FITC/PI staining based flow cytometric analysis (reference value: 90.6 %); assay type: functional
HaCaT = experiment: Induction of apoptosis in human HaCaT cells at IC50 incubated for 72 hrs by Annexin V-FITC/PI staining based flow cytometric analysis; assay type: functional, cell-based
HCT-116 [7] = experiment: Induction of apoptosis in human HCT-116 cells assessed as increase in caspase-3/7 activity at IC50 incubated for 24 hrs by Glo assay; assay type: functional, cell-based
[8] = molecular target: T1, 5-hydroxytryptamine receptor 1A (Rattus norvegicus) (UniProt P19327); experiment: Agonist activity at Sprague-Dawley rat hippocampal membrane 5-HT1A receptor assessed as stimulation of [35S]GTPgammaS binding by measuring maximal efficacy measured after 90 mins by scintillation counter analysis relative to control; assay type: functional, cell membranes; settings: Hippocampus, filed as agonist
T1 sequence (whole entry): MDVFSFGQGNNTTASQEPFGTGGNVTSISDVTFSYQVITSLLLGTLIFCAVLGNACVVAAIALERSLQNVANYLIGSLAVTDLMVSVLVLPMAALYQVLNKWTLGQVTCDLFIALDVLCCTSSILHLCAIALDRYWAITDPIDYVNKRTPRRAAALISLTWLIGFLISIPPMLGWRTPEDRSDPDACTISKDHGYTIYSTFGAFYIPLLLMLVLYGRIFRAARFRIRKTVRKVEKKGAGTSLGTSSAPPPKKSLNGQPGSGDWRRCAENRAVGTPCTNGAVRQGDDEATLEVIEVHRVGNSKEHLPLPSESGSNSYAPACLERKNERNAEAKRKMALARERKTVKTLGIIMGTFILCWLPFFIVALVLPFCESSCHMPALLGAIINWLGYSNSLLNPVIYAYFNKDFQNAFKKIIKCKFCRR

[9] = molecular target: 5-hydroxytryptamine receptor 2A (Rattus norvegicus, UniProt P14842); experiment: Displacement of [3H]ketanserin from Sprague-Dawley rat 5-HT2A receptor assessed as inhibition constant measured after 60 mins by competitive binding assay
5-hydroxytryptamine receptor 2A, sequence (P14842 whole entry): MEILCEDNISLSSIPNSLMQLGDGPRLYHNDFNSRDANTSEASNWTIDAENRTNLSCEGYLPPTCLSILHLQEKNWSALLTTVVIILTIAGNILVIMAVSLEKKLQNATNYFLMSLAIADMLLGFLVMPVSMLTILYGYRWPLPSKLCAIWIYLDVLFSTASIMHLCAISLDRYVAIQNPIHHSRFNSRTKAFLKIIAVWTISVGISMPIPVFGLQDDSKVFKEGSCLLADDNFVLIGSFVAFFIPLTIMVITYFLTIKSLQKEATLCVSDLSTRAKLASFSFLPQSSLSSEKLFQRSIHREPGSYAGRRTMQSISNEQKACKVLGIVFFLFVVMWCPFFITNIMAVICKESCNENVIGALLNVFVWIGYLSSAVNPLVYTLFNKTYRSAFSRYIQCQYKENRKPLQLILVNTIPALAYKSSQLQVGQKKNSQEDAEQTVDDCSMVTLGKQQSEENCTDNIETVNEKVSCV

SW480 [10] = experiment: Antiproliferative activity against human SW480 cells assessed as reduction in cell number at IC50 measured after 72 hrs by trypan blue dye based assay relative to control; assay type: functional; design: scale not given: the % may be the effect or the level left
PC-3 [11] = experiment: Antiproliferative activity against human PC-3 cells assessed as reduction in cell number at IC50 measured after 72 hrs by trypan blue dye based assay relative to control; assay type: functional; design: scale not given: the % may be the effect or the level left
SW480 [12] = experiment: Antiproliferative activity against human SW480 cells assessed as reduction in cell viability at IC50 measured after 72 hrs by trypan blue dye based assay relative to control; assay type: functional
PC-3 [13] = experiment: Induction of apoptosis in human PC-3 cells assessed as viable cells at IC50 incubated for 72 hrs by Annexin V-FITC/PI staining based flow cytometric analysis (reference value: 94.4 %); assay type: functional
PC-3 [14] = experiment: Induction of apoptosis in human PC-3 cells assessed as early apoptotic cells at IC50 incubated for 72 hrs by Annexin V-FITC/PI staining based flow cytometric analysis (reference value: 0.3 %); assay type: functional
PC-3 [15] = experiment: Induction of apoptosis in human PC-3 cells assessed as late apoptotic cells at IC50 incubated for 72 hrs by Annexin V-FITC/PI staining based flow cytometric analysis (reference value: 1.7 %); assay type: functional
PC-3 [16] = experiment: Induction of apoptosis in human PC-3 cells assessed as necrotic cells at IC50 incubated for 72 hrs by Annexin V-FITC/PI staining based flow cytometric analysis (reference value: 3.6 %); assay type: functional
SW480 [17] = experiment: Induction of apoptosis in human SW480 cells assessed as viable cells at IC50 incubated for 72 hrs by Annexin V-FITC/PI staining based flow cytometric analysis (reference value: 97.7 %); assay type: functional
SW480 [18] = experiment: Induction of apoptosis in human SW480 cells assessed as early apoptotic cells at IC50 incubated for 72 hrs by Annexin V-FITC/PI staining based flow cytometric analysis (reference value: […]); assay type: functional
SW480 [19] = experiment: Induction of apoptosis in human SW480 cells assessed as late apoptotic cells at IC50 incubated for 72 hrs by Annexin V-FITC/PI staining based flow cytometric analysis (reference value: 0.8 %); assay type: functional
SW480 [20] = experiment: Induction of apoptosis in human SW480 cells assessed as necrotic cells at IC50 incubated for 72 hrs by Annexin V-FITC/PI staining based flow cytometric analysis (reference value: 0.1 %); assay type: functional
PC-3 [21] = experiment: Antiproliferative activity against human PC-3 cells assessed as reduction in cell viability at IC50 measured after 72 hrs by trypan blue dye based assay relative to control; assay type: functional
PC-3 [22] = experiment: Induction of apoptosis in human PC-3 cells assessed as increase in caspase-3/7 activity at IC50 incubated for 24 hrs by Glo assay relative to control; assay type: functional
SW-620 [23] = experiment: Induction of apoptosis in human SW620 cells assessed as viable cells at IC50 incubated for 72 hrs by Annexin V-FITC/PI staining based flow cytometric analysis (reference value: 92.9 %); assay type: functional
SW-620 [24] = experiment: Induction of apoptosis in human SW620 cells assessed as late apoptotic cells at IC50 incubated for 72 hrs by Annexin V-FITC/PI staining based flow cytometric analysis (reference value: 1.2 %); assay type: functional
SW-620 [25] = experiment: Induction of apoptosis in human SW620 cells assessed as necrotic cells at IC50 incubated for 72 hrs by Annexin V-FITC/PI staining based flow cytometric analysis (reference value: 0.7 %); assay type: functional
HCT-116 [26] = experiment: Induction of apoptosis in human HCT-116 cells assessed as increase in caspase-3/7 activity at IC50 incubated for 24 hrs by Glo assay relative to control; assay type: functional
HCT-116 [27] = experiment: Antiproliferative activity against human HCT-116 cells assessed as decrease in IL-6 level at IC50 measured after 72 hrs by ELISA assay relative to control; assay type: functional; design: scale not given: the % may be the effect or the level left
SW-620 [28] = experiment: Antiproliferative activity against human SW620 cells assessed as decrease in IL-6 level at IC50 measured after 72 hrs by ELISA assay relative to control; assay type: functional; design: scale not given: the % may be the effect or the level left

SMILES | Emax [8] | Ki [9] | selectivity ratio [1] | selectivity ratio [2] | Activity (K562 [3]) | Activity (K562 [4]) | Activity (K562 [5]) | Activity (HCT-116 [6]) | Activity (HMEC-1) | Activity (HaCaT) | Activity (SW480 [10]) | Activity (PC-3 [11]) | Activity (SW480 [12]) | Activity (PC-3 [13]) | Activity (SW480 [17]) | Activity (SW480 [18]) | Activity (SW480 [19]) | Activity (SW480 [20]) | Activity (HCT-116 [26]) | Activity (HCT-116 [27]) | other results
CC12C(=O)C(C)(C(c3ccccc3)=C1c1ccccc1)C1C(=O)N(CCCCN3CCN(c4ccccn4)CC3)C(=O)C12 (stereo unspecified) | 168% | 4700 nM | 2.51 | 2.28 | 37% | 36.1% | 6.3% | 85.5% | 95.5% | inactive |  |  |  |  |  |  |  |  |  |  | Activity (HCT-116 [7]): inactive
CC12C(=O)C(C)(C(c3ccccc3)=C1c1ccccc1)C1C(=O)N(CCCCN3CCN(c4cccc(Cl)c4)CC3)C(=O)C12 (stereo unspecified) | 162% | 25300 nM | 1.55 | 0.86 | 30% | 59.5% | 5.2% | 81.5% | 86.8% | inactive | 39% | 29% | 21% | 78.5% | 81.9% | 16.8% | 1.2% | 0.1% |  |  | Activity (PC-3 [14]): 3.3%; Activity (PC-3 [15]): 16.2%; Activity (PC-3 [16]): 2.1%; Activity (PC-3 [21]): 26%; Activity (PC-3 [22]): 70%; Activity (HCT-116 [7]): inactive
CC12C(=O)C(C)(C(c3ccccc3)=C1c1ccccc1)C1C(=O)N(CCCCN3CCN(c4ncccn4)CC3)C(=O)C12 (stereo unspecified) | 134% |  | 1.83 | 1.69 | 28% | 77.3% | 4% | 37.4% | 91.7% | inactive |  |  |  |  |  |  |  |  | 137% | 53% | 

Continued, in another order:

Emax [8] | Ki [9] | SMILES | selectivity ratio [1] | selectivity ratio [2] | Activity (K562 [3]) | Activity (K562 [4]) | Activity (K562 [5]) | Activity (HCT-116 [6]) | Activity (HMEC-1) | Activity (HaCaT) | Activity (SW480 [10]) | Activity (PC-3 [11]) | Activity (SW480 [12]) | Activity (PC-3 [13]) | Activity (SW480 [17]) | Activity (SW480 [18]) | Activity (SW480 [19]) | Activity (SW480 [20]) | Activity (HCT-116 [26]) | Activity (HCT-116 [27]) | other results
145% | 100 nM | CC12C(=O)C(C)(C(c3ccccc3)=C1c1ccccc1)C1C(=O)N(CCCCN3CCN(c4ccccc4Cl)CC3)C(=O)C12 (stereo unspecified) | 1.6 | 0.82 | 30% | 67% | 5.2% | 58% | 86.7% | inactive | 38% | 43% | 21% | 60.1% | 89% | 10% | 1% | 0.1% | 137% | 53% | Activity (PC-3 [14]): 4.2%; Activity (PC-3 [15]): 32.6%; Activity (PC-3 [16]): 3.1%; Activity (SW-620 [23]): 89.9%; Activity (SW-620 [24]): 2.2%; Activity (SW-620 [25]): 1.8%; Activity (PC-3 [21]): 26%; Activity (PC-3 [22]): 216%; Activity (SW-620 [28]): 24%
122% | 200 nM | COc1ccccc1N1CCN(CCCCN2C(=O)C3C(C2=O)C2(C)C(=O)C3(C)C(c3ccccc3)=C2c2ccccc2)CC1 (stereo unspecified) | 1.93 | 1.86 | 44% | 22.4% | 5.9% | 79.2% | 94.3% | inactive | 40% |  | 22% |  | 87.1% | 11.1% | 1.7% | 0.1% | 53% | 53% | Activity (SW-620 [23]): 89.2%; Activity (SW-620 [24]): 1.8%; Activity (SW-620 [25]): 1.4%; Activity (SW-620 [28]): 31%
152% | 300 nM | CC12C(=O)C(C)(C(c3ccccc3)=C1c1ccccc1)C1C(=O)N(CCCCN3CCN(c4ccccc4F)CC3)C(=O)C12 (stereo unspecified) | 0.66 | 0.58 | 30% | 56.9% | 5.2% | 74.9% | 85.8% |  | 46% | 27% | 21% | 75.6% | 87.8% | 10.8% | 1.4% | 0.1% | 137% | 53% | Activity (PC-3 [14]): 6.3%; Activity (PC-3 [15]): 16.2%; Activity (PC-3 [16]): 2.1%; Activity (PC-3 [21]): 26%; Activity (PC-3 [22]): 127%

From ChEMBL document CHEMBL5329202, “New aryl-/heteroarylpiperazine derivatives of 1,7-dimethyl-8,9-diphenyl-4-azatricyclo[5.2.1.02,6]dec-8-ene-3,5,10-trione: Synthesis and preliminary studies of biological activities” (Bioorg Med Chem, 2023)
